According to US20230047825A1, “ANTIMICROBIAL PEPTIDES” (priority 2019, published 2023):
In brackets after ≈: the same amount, converted by molar mass. Where a SMILES comes first, the peptide text is derived from it.

Assays:
[1] = system: Staphylococcus aureus ATCC 19636 (Smith); experiment: microbe, parasite or virus in culture; settings: ATCC 19636
Method: (§1) The S. aureus strains ATCC 29213, ATCC 19636, ATCC 33591 (MRSA), BAA-1556 (MRSA USA 300) were obtained from the American Type Culture Collection (ATCC). […] The species identity was confirmed with 16S rRNA analysis.
(§2) Two broth mediums were used, Mueller Hinton Broth and RPMI 1640+5% fetal bovine serum. Test substances were evaluated in 11-point titrations and performed in duplicate.
(§3) The direct colony suspension method was used to prepare inoculated broth. Isolated colonies were taken from an 18-24 h culture plate. Optical density measurements (OD620nm) were used to estimate the bacterial density. […] The stock solutions were diluted by 2-fold serial titrations with their respective vehicles for a total of 11 concentrations.
(§4) A 4 μL aliquot of each dilution was added to 196 μL of broth medium seeded with the organism in wells of a sterilized 96 well polypropylene plate (Nunc™ 249949) using aluminum foil as cover. The final bacterial count was 2 to 8×10^5 CFU/mL. […] The final test article concentration range was 32 to 0.0313 μg/mL.
(§5) Each test substance dilution was evaluated in duplicate on one test occasion. […] Plates were incubated at 35-37° C. for 18 h. The test plates were visually examined and each well was visually scored for growth or complete inhibition of growth. The MIC value was recorded.

[2] = system: Staphylococcus aureus ATCC 29213; experiment: microbe, parasite or virus in culture; settings: ATCC 29213
Method: as §1, §2, §3, §4, §5

[3] = system: Staphylococcus aureus ATCC 33591 (MRSA); experiment: microbe, parasite or virus in culture; settings: ATCC 33591
Method: as §1, §2, §3, §4, §5

[4] = system: Staphylococcus aureus ATCC BAA-1556 (USA300, MRSA); experiment: microbe, parasite or virus in culture; settings: ATCC BAA-1556
Method: as §1, §2, §3, §4, §5

[5] = system: Staphylococcus aureus VRS-2 (VanA, VRSA); experiment: microbe, parasite or virus in culture; settings: VRS-2 (VanA)
Method: as §1, §2, §3, §4, §5

[6] = system: panel of Gram-negative or Gram-positive pathogens; settings: RPMI (5% FCS); Gram-negative isolates, all but the P. aeruginosa isolates
Method: MICs were determined on the same plates as the FICs to increase reproducibility.
Methods: The natural AMP (termed AMP1) was modified to produce synthetic variants, AMPs 1a, 2a, 2b, 3a and 3b. Minimum inhibitory concentrations (MICs) were determined using the microbroth dilution assay with Mueller Hinton broth (MHB) or RPMI (with 5% FBS) and stability in serum was tested by conducting MICs in MHB containing 10% FBS. Synergy experiments were performed following a checkerboard protocol. Cytotoxicity was tested against HEK293 and HeLa immortalised human cell-lines using the XTT viability stain and by quantifying haemolysis of human red blood cells. Patch clamp analysis was performed using the Port-a-Patch® automated patch-clamp system on DPhPE/DPhPG (model for a Gram-negative plasma membrane) or DPhPG (Gram-positive) model membranes challenged with peptide. The murine lung infection model was performed using the agar bead model with Staphylococcus aureus strain NCTC 13616 (EMRSA-15).

CC(C)C[C@@H](NC(=O)[C@@H](Cc1ccc(O)cc1)NC(=O)[C@@H](Cc1c[nH]cn1)NC(=O)[C@H](NC(=O)[C@@H](CC(C)C)NC(=O)[C@@H](C)NC(=O)[C@@H](C)NC(=O)[C@@H](CCCNC(=N)N)NC(=O)CNC(=O)[C@H](NC(=O)[C@@H](Cc1c[nH]cn1)NC(=O)[C@@H](CCCNC(=N)N)NC(=O)CNC(=O)[C@H](NC(=O)[C@@H](Cc1c[nH]cn1)NC(=O)[C@@H](C)NC(=O)[C@@H](C)NC(=O)[C@@H](CCCNC(=N)N)NC(=O)[C@@H](CCCNC(=N)N)NC(=O)[C@@H](Cc1ccccc1)NC(=O)[C@@H](Cc1ccccc1)NC(=O)[C@@H](CO)NC(=O)CNC(=O)[C@@H](Cc1c[nH]c2ccccc12)NC(=O)CN)C(C)C)C(C)C)[C@H](C)O)C(N)=O [D-pleurocidin-KR] (HELM PEPTIDE1{G.[dW].G.[dS].[dF].[dF].[dR].[dR].[dA].[dA].[dH].[dV].G.[dR].[dH].[dV].G.[dR].[dA].[dA].[dL].[dT].[dH].[dY].[dL].[am]}$$$$V2.0; N-terminus assumed)
MIC [1]: 2 µg/mL (≈ 0.709 µM) | MIC [2]: 2 µg/mL (≈ 0.709 µM) | MIC [3]: 2 µg/mL (≈ 0.709 µM) | MIC [4]: 2 µg/mL (≈ 0.709 µM) | MIC [5]: 2 µg/mL (≈ 0.709 µM) | effective concentration (MIC) in RPMI [6]: ≤ 4 µg/mL
